# Laboratory results published in patent US20240246908A1 (ORION CORPORATION, priority 2021, published 2024).
# Test system: YAP-TEAD
# Test: TEAD inhibition, Hippo Pathway TEAD Reporter MCF-7 luciferase assay
# Type: cell-based
# Details: Homo sapiens, MCF7, 24 h, Hippo Pathway TEAD Reporter MCF-7 cells, luciferase activity after 24 h; read-out: IC50 of the test compounds on YAP-TEAD inhibition (Group)
# How it was run: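 IC50 derived from ONE-Glo luciferase luminescence after 24 h compound exposure (11 concentrations in quadruplicate, 0.1% DMSO control). Reporter: MCF-7 line expressing firefly luciferase under TEAD elements, constitutively activated by nuclear YAP1.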
row,SMILES,IC50 [nM]
1,"CN1C(=O)NCC1C(=O)Nc1cc(Oc2ccc(C(F)(F)F)cn2)cc2c1OCC2 (centres unmarked) [Compound 159, 3-Methyl-2-oxo-N-(5-((5-(trifluoromethyl)pyridin-2-yl)oxy)-2,3-dihydrobenzo-furan-7-yl)imidazolidine-4-carboxamide]",< 50
2,"COc1ccc(Oc2ccc(C(F)(F)F)cc2)cc1NC(=O)c1nnn[nH]1 [Compound 392, N-(2-Methoxy-5-(4-(trifluoromethyl)phenoxy)phenyl)-1H-tetrazole-5-carboxamide]",301 to 2000
3,"COc1ccc(Oc2ccc(C(F)(F)F)cc2)cc1NC(=O)C1CCC(=O)N1C (centres unmarked) [Compound 48, N-(2-Methoxy-5-(4-(trifluoromethyl)phenoxy)phenyl)-1-methyl-5-oxopyrrolidi-ne-2-carboxamide]",< 50
4,"O=C1CCC(C(=O)Nc2cc(Oc3ccc(C(F)(F)F)cc3)cc3c2OCCO3)N1 (centres unmarked) [Compound 66, 5-Oxo-N-(7-(4-(trifluoromethyl)phenoxy)-2,3-dihydrobenzo[b][1,4]dioxin-5-yl)pyrrolidine-2-carboxamide]",< 50
5,"COc1ccc(Oc2ccc(C(F)(F)F)cc2)cc1NC(=O)C1(C)CCC(=O)NC1 (centres unmarked) [Compound 121, N-(2-Methoxy-5-(4-(trifluoromethyl)phenoxy)phenyl)-3-methyl-6-oxo-piperidine-3-carboxamide]",301 to 2000
6,"CN1C[C@@H](C(=O)Nc2cc(Oc3ccc(C(F)(F)F)cn3)cc3c2OCO3)N(C)C1=O [Compound 360, (S)-1,3-Dimethyl-2-oxo-N-(6-((5-(trifluoromethyl)pyridin-2-yl)oxy)benzo[d]-[1,3]dioxol-4-yl)imidazolidine-4-carboxamide]",50 to 300
7,"COc1ccc(Oc2ccc(Cl)c(F)c2)cc1NC(=O)[C@@H]1CNC(=O)N1C [Compound 338, (S)—N-(5-(4-Chloro-3-fluorophenoxy)-2-methoxyphenyl)-3-methyl-2-oxo-imidazolidine-4-carboxamide]",< 50
8,"COc1ccc(CNc2cccc(F)c2)cc1NC(=O)C1CCC(=O)N1 (centres unmarked) [Compound 246, N-(5-(((3-Fluorophenyl)amino)methyl)-2-methoxyphenyl)-5-oxopyrrolidine-2-carboxamide]",301 to 2000
9,"COc1ccc(Oc2ccc(C(F)(F)F)nc2)cc1NC(=O)C1CCC(=O)N1C (centres unmarked) [Compound 63, N-(2-Methoxy-5-((6-(trifluoromethyl)pyridin-3-yl)oxy)phenyl)-1-methyl-5-oxopyrrolidine-2-carboxamide]",50 to 300
10,"COc1ccc(Oc2ccc(C(F)(F)F)cc2)cc1NC(=O)C1CCC(=S)N1 (centres unmarked) [Compound 92, N-(2-Methoxy-5-(4-(trifluoromethyl)phenoxy)phenyl)-5-thioxopyrrolidine-2-carboxamide]",< 50
11,"COc1cc(NC(=O)C2CCC(=O)N2C)cc(OC2CCC(F)(F)CC2)c1 (stereo in doubt) [Compound 275, (R)—N-(3-((4,4-Difluorocyclohexyl)oxy)-5-methoxyphenyl)-1-methyl-5-oxo-pyrrolidine-2-carboxamide]",50 to 300
12,"COc1ccc(Sc2ccc(F)c(F)c2)cc1NC(=O)C1CCC(=O)N1 (centres unmarked) [Compound 298, N-(5-((3,4-Difluorophenyl)thio)-2-methoxyphenyl)-5-oxopyrrolidine-2-carboxamide]",< 50
13,"COc1ccc(OCc2cccc(C(F)(F)F)c2)cc1NC(=O)C1CCC(=O)N1C(C)=O (centres unmarked) [Compound 51, 1-Acetyl-N-(2-methoxy-5-((3-(trifluoromethyl)benzyl)oxy)phenyl)-5-oxo-pyrrolidine-2-carboxamide]",301 to 2000
14,"COc1ccc(Oc2ccc(C(F)(F)F)cc2)cc1NC(=O)[C@@H]1COC(=O)N1C [Compound 102, (S)—N-(2-Methoxy-5-(4-(trifluoromethyl)phenoxy)phenyl)-3-methyl-2-oxooxazolidine-4-carboxamide]",< 50
15,"COc1cc(NC(=O)C2CCC(=O)N2C)cc(Oc2ccc(F)c(F)c2)c1 (centres unmarked) [Compound 284, N-(3-(3,4-Difluorophenoxy)-5-methoxyphenyl)-1-methyl-5-oxopyrrolidine-2-carboxamide]",50 to 300
16,"C[C@H]1Cc2cc(Oc3ccc(C(F)(F)F)cn3)cc(NC(=O)[C@H]3CCC(=O)N3C)c2O1 [Compound 172, (2R)-1-Methyl-N-(2-methyl-5-((5-(trifluoromethyl)pyridin-2-yl)oxy)-2,3-di-hydrobenzofuran-7-yl)-5-oxopyrrolidine-2-carboxamide]",50 to 300
17,"CN1C(=O)NCC1C(=O)Nc1cc(Oc2ccc(C(F)(F)F)cn2)cc2c1OCCC2 (centres unmarked) [Compound 176, 3-Methyl-2-oxo-N-(6-((5-(trifluoromethyl)pyridin-2-yl)oxy)chroman-8-yl)-imidazolidine-4-carboxamide]",< 50
